In one assay the test system is HCT116 WT cells. The assay can be described thus: HCT116 WT (parent) cell line proliferation / cell viability (CellTiter-Glo, 6 days). The assay is classed as cell-based. As to conditions: Homo sapiens, HCT-116, 144 h, 6 days treatment. The protocol: (§1) HCT116 Proliferation Activity
(§2) To assess selective anti-proliferative activity of compounds of the invention in cells that have loss expression of MTAP, an HCT-116 isogenic cell line pair was utilized where one cell line was engineered to genetically knockout both MTAP alleles. Cell viability was then assessed in both the parent HCT-116 cell line and the MTAP null cell line after 6 days of treatment with compounds of the present invention. Selective anti-proliferative activity in the MTAP null cell line indicates MTA-cooperative inhibition of PRMT5 and ability to inhibit growth of cancer cells that have loss of MTAP.
(§3) HCT116 MTAP null and WT cells were seeded in 96-well tissue culture plates in RPMI 1640 media+10% fetal bovine serum. Plates were incubated overnight at 37° C. and 5% CO2. Cells were then treated with an 8- or 9-point serial dilution of compound, using a top concentration of 1, or 10 μM, 1:3 serial dilution steps and, a DMSO-only control. Cells were incubated in the presence of drug for 6 days. Effects on cell viability were measured with the CellTiter-Glo® Luminescent Cell Viability Assay (Promega) per manufacturer's recommendation. Assay plates were read on an EnVision™ Multilabel Reader using the Ultra-Sensitive luminescence module. IC50 values were calculated with GraphPad Prism v 5.01 using symmetrical sigmoidal dose-response least squares fit with Hill slope fixed to −1 and top constrain to 100% or GeneData Screener using a 4-parameter logistic model to fit dose response curves.
(§4) Alternatively, compounds could be assayed with a 384 well plate format:
(§5) Compounds were pre-spotted into 384 well plates with a 22-point serial dilution of compound, using a top concentration of 10 or 50 μM, 1:2 serial dilution steps and, a DMSO-only control. HCT116 MTAP null and WT cells were then seeded as above and after 6 days effects on cell viability were measured with the CellTiter-Glo® Luminescent Cell Viability Assay (Promega). Assay plates were read as above and IC50 values were calculated with GeneData Screener using a 4-parameter logistic model to fit dose response curves. The reported IC50 represents the value where the curve transits 50% of control.
For orientation: ATP-based viability assays read luminescence as a measure of living cells.

For the next assay, the system named is HCT116 MTAP null cells. The assay can be described thus: HCT116 MTAP null cell line proliferation / cell viability (CellTiter-Glo, 6 days). As to conditions: 144 h; HCT116 MTAP null cells, 6 days treatment, CellTiter-Glo cell viability; read-out: HCT-116 MTAP null IC50. The assay is classed as cell-based. Here is the method:
as §1, §2, §3, §4, §5

Regarding `CN(C(=O)c1cc2c(cc1F)nc(N)c1cnn(C)c12)C1COc2cc(C(F)(F)F)cc(F)c21` (racemic) [Example 245, 4-amino-7-fluoro-N-((3R)-4-fluoro-6-(trifluoromethyl)-2,3-dihydro-1-benzofuran-3-yl)-N,1-dimethyl-1H-pyrazolo-[4,3-c]quinoline-8-carboxamide and 4-amino-7-fluoro-N-((3S)-4-fluoro-6-(trifluoromethyl)-2,3-dihydro-1-benzofuran-3-yl)-N,1-dimethyl-1H-pyrazolo[4,3-c]quinoline-8-carboxamide], the concentration for half-maximal inhibition (IC50) was determined as 0.88 µM in the assay on HCT116 WT cells and 0.019 µM in the assay with HCT116 MTAP null cells.
On the same counts, the results for `CN(C(=O)c1cc2c(cc1F)nc(N)c1cnn(C)c12)C1c2ccc(C(F)(F)F)nc2CC1(F)F` (racemic) [Example 246, 4-amino-N-((5R)-6,6-difluoro-2-(trifluoromethyl)-6,7-dihydro-5H-cyclopenta[b]-pyridin-5-yl)-7-fluoro-N,1-dimethyl-1H-pyrazolo[4,3-c]-quinoline-8-carboxamide and 4-amino-N-((5S)-6,6-difluoro-2-(trifluoromethyl)-6,7-dihydro-5H-cyclopenta[b]pyridin-5-yl)-7-fluoro-N,1-dimethyl-1H-pyrazolo[4,3-c]quinoline-8-carboxamide] are 8.48 µM and 0.61 µM.
The corresponding values for `CN(C(=O)c1cc2c(cc1Cl)nc(N)c1cnn(C)c12)C1CCc2nc(C(F)(F)F)ccc21` (racemic) [Example 248, 4-amino-7-chloro-N,1-dimethyl-N-((5R)-2-(trifluoromethyl)-6,7-dihydro-5H-cyclopenta[b]-pyridin-5-yl)-1H-pyrazolo[4,3-c]quinoline-8-carboxamide and 4-amino-7-chloro-N,1-dimethyl-N-((5S)-2-(trifluoromethyl)-6,7-dihydro-5H-cyclopenta[b]-pyridin-5-yl)-1H-pyrazolo[4,3-c]quinoline-8-carboxamide] are 0.635 µM and 0.018 µM.
The corresponding values for `CN(C(=O)c1cc2c3c(c(N)nc2cc1F)COC3)C1CCOc2cc(C(F)(F)F)ccc21` (racemic) [Example 272, 4-amino-7-fluoro-N-methyl-N-((4R)-7-(trifluoromethyl)-3,4-dihydro-2H-chromen-4-yl)-1,3-dihydrofuro[3,4-c]quinoline-8-carboxamide and 4-amino-7-fluoro-N-methyl-N-((4S)-7-(trifluoromethyl)-3,4-dihydro-2H-chromen-4-yl)-1,3-dihydrofuro[3,4-c]quinoline-8-carboxamide] are 5.39 µM and 0.206 µM.
Take `CN(C(=O)c1cc2c(cc1F)nc(N)c1cnn(C)c12)C1CCOc2cc(C(F)(F)F)ccc21` (racemic) [Example 290, 4-amino-7-fluoro-N,1-dimethyl-N-((4R)-7-(trifluoromethyl)-3,4-dihydro-2H-chromen-4-yl)-1H-pyrazolo[4,3-c]quinoline-8-carboxamide and 4-amino-7-fluoro-N,1-dimethyl-N-((4S)-7-(trifluoromethyl)-3,4-dihydro-2H-chromen-4-yl)-1H-pyrazolo[4,3-c]quinoline-8-carboxamide]: the concentration for half-maximal inhibition (IC50) is 2.46 µM in the assay with HCT116 WT cells and 0.061 µM with HCT116 MTAP null cells.
The corresponding values for `CN(C(=O)c1ccc2nc(N)c3c(c2c1)COC3)C1CCc2nc(C(F)(F)F)ccc21` (racemic) [Example 444, 4-amino-N-methyl-N-((5R)-2-(trifluoromethyl)-6,7-dihydro-5H-cyclopenta[b]pyridin-5-yl)-1,3-dihydrofuro[3,4-c]quinoline-8-carboxamide and 4-amino-N-methyl-N-((5S)-2-(trifluoromethyl)-6,7-dihydro-5H-cyclopenta[b]pyridin-5-yl)-1,3-dihydrofuro[3,4-c]quinoline-8-carboxamide] are 12.1 µM and 0.348 µM.
On the same counts, the results for `CN(C(=O)c1ccc2nc(N)c3c(c2c1)COC3)C1COc2cc(C(F)(F)F)ncc21` (racemic) [Example 445, 4-amino-N-methyl-N-((3R)-6-(trifluoromethyl)-2,3-dihydrofuro[3,2-c]pyridin-3-yl)-1,3-dihydrofuro[3,4-c]quinoline-8-carboxamide and 4-amino-N-methyl-N-((3S)-6-(trifluoromethyl)-2,3-dihydrofuro[3,2-c]pyridin-3-yl)-1,3-dihydrofuro[3,4-c]quinoline-8-carboxamide] are 12.6 µM and 0.316 µM.
On the same counts, the results for `Nc1nc2ccc(C(=O)N(C3CC3)C3COc4cc(C(F)(F)F)ccc43)cc2c2c1COC2` (racemic) [Example 449, 4-amino-N-cyclopropyl-N-((3R)-6-(trifluoromethyl)-2,3-dihydro-1-benzofuran-3-yl)-1,3-dihydrofuro[3,4-c]quinoline-8-carboxamide and 4-amino-N-cyclopropyl-N-((3S)-6-(trifluoromethyl)-2,3-dihydro-1-benzofuran-3-yl)-1,3-dihydrofuro[3,4-c]quinoline-8-carboxamide] are 3.35 µM and 0.096 µM.
For the compound `CN(C(=O)c1ccc2nc(N)c3c(c2c1)COC3)C1COc2cc(Br)cnc21` (racemic) [Example 450, 4-amino-N-((3R)-6-bromo-2,3-dihydrofuro[3,2-b]pyridin-3-yl)-N-methyl-1,3-dihydrofuro[3,4-c]quinoline-8-carboxamide and 4-amino-N-((3S)-6-bromo-2,3-dihydrofuro[3,2-b]pyridin-3-yl)-N-methyl-1,3-dihydrofuro[3,4-c]quinoline-8-carboxamide], the 50% inhibitory concentration (IC50) with HCT116 WT cells was determined as 37.8 µM; in the assay on HCT116 MTAP null cells, 2.07 µM.
On to `CN(C(=O)c1cc2c3c(c(N)nc2cn1)COC3)C1COc2cc(OC(F)F)ccc21` (racemic) [Example 453, 4-amino-N-((3R)-6-(difluoromethoxy)-2,3-dihydro-1-benzofuran-3-yl)-N-methyl-1,3-dihydrofuro[3,4-c][1,7]naphthyridine-8-carboxamide and 4-amino-N-((3S)-6-(difluoromethoxy)-2,3-dihydro-1-benzofuran-3-yl)-N-methyl-1,3-dihydrofuro[3,4-c][1,7]naphthyridine-8-carboxamide], for which the IC50 in the assay on HCT116 WT cells is 13.3 µM; with HCT116 MTAP null cells it was 0.246 µM.
The corresponding values for `CN(C(=O)c1cc2c3c(c(N)nc2cn1)COC3)C1COc2cc(C(F)(F)F)ncc21` (racemic) [Example 454, 4-amino-N-methyl-N-((3R)-6-(trifluoromethyl)-2,3-dihydrofuro[3,2-c]pyridin-3-yl)-1,3-dihydrofuro[3,4-c][1,7]naphthyridine-8-carboxamide and 4-amino-N-methyl-N-((3S)-6-(trifluoromethyl)-2,3-dihydrofuro[3,2-c]pyridin-3-yl)-1,3-dihydrofuro[3,4-c][1,7]naphthyridine-8-carboxamide] are 50 µM and 3.56 µM.
The corresponding values for `CN(C(=O)c1cc2c3c(c(N)nc2cn1)COC3)C1COc2cc(C(F)(F)F)cc(F)c21` (racemic) [Example 455, 4-amino-N-((3R)-4-fluoro-6-(trifluoromethyl)-2,3-dihydro-1-benzofuran-3-yl)-N-methyl-1,3-dihydrofuro[3,4-c][1,7]naphthyridine-8-carboxamide and 4-amino-N-((3S)-4-fluoro-6-(trifluoromethyl)-2,3-dihydro-1-benzofuran-3-yl)-N-methyl-1,3-dihydrofuro[3,4-c][1,7]naphthyridine-8-carboxamide] are 5.62 µM and 0.122 µM.
The corresponding values for `CN(C(=O)c1cc2c3c(c(N)nc2cn1)COC3)C1COc2cc(Br)cnc21` (racemic) [Example 458, 4-amino-N-((3R)-6-bromo-2,3-dihydrofuro[3,2-b]pyridin-3-yl)-N-methyl-1,3-dihydrofuro[3,4-c][1,7]naphthyridine-8-carboxamide and 4-amino-N-((3S)-6-bromo-2,3-dihydrofuro[3,2-b]pyridin-3-yl)-N-methyl-1,3-dihydrofuro[3,4-c][1,7]naphthyridine-8-carboxamide] are 38.5 µM and 5.05 µM.
`CN(C(=O)c1cc2c3c(c(N)nc2cc1F)COC3)C1COc2cc(OC(F)F)ccc21` (racemic) [Example 459, 4-amino-N-((3R)-6-(difluoromethoxy)-2,3-dihydro-1-benzofuran-3-yl)-7-fluoro-N-methyl-1,3-dihydrofuro[3,4-c]quinoline-8-carboxamide and 4-amino-N-((3S)-6-(difluoromethoxy)-2,3-dihydro-1-benzofuran-3-yl)-7-fluoro-N-methyl-1,3-dihydrofuro[3,4-c]quinoline-8-carboxamide]: the IC50 is 5.54 µM in the assay with HCT116 WT cells and 0.091 µM in the assay on HCT116 MTAP null cells.

Broadly, the IC50 is the midpoint of a concentration-inhibition curve.

The values are drawn from patent US20240124442A1, “TRICYCLIC-AMIDO-BICYCLIC PRMT5 INHIBITORS” (AMGEN INC., priority 2021, published 2024).
